The subject of assay [1] is Drosophila epilepsy model. More on the design: method as in PMID 39720593. The following applies: cited from earlier work.
For assay [2], the system named is Drosophila mutant KCNT1 lines (G288S, R398Q, R928C). Description: Bang-sensitive behavioral seizure assay, statements for all three Drosophila mutant KCNT1 lines. It counts as in vivo, Drosophila melanogaster. The following applies: drug in food, 1 nM to 1 μM, each of the three mutant lines. The source says: The Drosophila melanogaster lines carrying the WT human KCNT1 transgene (NM_020822_3) or KCNT1 mutant G288S, R398Q or R928C transgene placed downstream of the yeast UAS promoter, have been described previously.[11] WT or mutant human UAS‐KCNT1 flies were crossed to flies expressing the GAL4 transcriptional activator under the control of the GAD1 promoter (GABAergic driver, Bloomington stock number 51630 P2) to drive expression of KCNT1 in GABAergic neurons, involved in neuronal inhibition.[11]
The bang‐sensitive behavioral assay (also known as the banging assay) was used to test for the presence of a seizure phenotype in Drosophila.[11], [30] Experiments were performed and scored, as previously described,[11] with a minimum of 50 Drosophila tested for each genotype and drug concentration.
Four drugs were selected for in vivo analysis to determine their effects on the seizure phenotypes in transgenic Drosophila lines with human mutant KCNT1 channels. Bepridil, a nonselective KCNT1 inhibitor was included for comparison. Drosophila food with and without drugs was prepared as previously described.[11] All chemicals were obtained from Sigma‐Aldrich (Gillingham, UK) apart from antrafenine hydrochloride (Toronto Research Chemicals, Canada) and regorafenib (USP, Germany).
Drosophila crosses were set up, and the resulting embryos were collected, as previously described.[11] A range of concentrations of each drug dissolved in Drosophila food, between 0.001 μM and 1 μM, were used in the experiments. Multiple replicates were performed for each dosage of the drugs and controls. Controls were vehicle controlled (VC), which was the normal food with just the solvent ethanol present (1 μl/1 ml) in the Drosophila food, and normal food (NF) control where no drug or solvent (ethanol) was added in the Drosophila food.
In all experiments, experimenters were not blinded to variants or treatments, nor were samples randomly assigned to groups. Sample sizes were not calculated in advance and no data were excluded from the analysis. Data were analyzed using GraphPad Prism 9 software (San Diego, CA, USA). All values are reported as mean ± standard error of the mean (SEM). All data passed normality and lognormality Shapiro–Wilk tests, determined by GraphPad Prism 9. In the experiments analyzing the effects of drugs in Drosophila, statistical significance of differences between groups was determined using Brown‐Forsythe and Welch's analysis of variance (ANOVA) tests (Supplementary Table S3), assuming non‐equal SDs, followed by Dunnett's multiple comparisons tests (GraphPad Prism 9). The results of the Dunnett's multiple comparisons tests are shown in Supplementary Table S4, where “N” represents independent trials using independent fly crosses, with the total number of flies for each condition shown in brackets.

Assay [3] has the same test system. Details: method as in PMID 38336906. The following applies: Drosophila models of KCNT1 epilepsy; cited from earlier work.

Consider `O=C1NC(=O)C(c2ccccc2)(c2ccccc2)N1` [Phenytoin], for which, in assay [1], the reduction of seizures result was “approximately 30%”.
Regarding `CC(C)COCC(CN(Cc1ccccc1)c1ccccc1)N1CCCC1` (centres unmarked) [bepridil], in assay [2], the “effect on seizure activity (in words)” value was “exacerbate the seizure phenotype”.
On to `Nc1nnc(-c2cccc(Cl)c2Cl)c(N)n1` [lamotrigine], for which, in assay [1], the reduction of seizures entry is on record as “approximately 30%”.
In the case of `C=C[C@H]1C[N@@]2CC[C@H]1C[C@@H]2[C@@H](O)c1ccnc2ccc(OC)cc12` [quinidine], the “effect on seizure phenotype (in words)” value in assay [3] is recorded as “exacerbate the seizure phenotype”.
As for `CCCC(CCC)C(=O)O` [valproate], the reduction of seizures result in assay [1] is “approximately 30%”.

Source of the values: article PMC12682947, “Identification of New KCNT1‐Epilepsy Drugs by In Silico, Cell, and Drosophila Modeling” (Annals of Neurology, 2025).
